In patent US5488060A, “Substituted thiadiazoles, compositions containing them and their use as antimicrobial and marine antifouling agents” (The Dow Chemical Company, priority 1994, dated 1996):
Converted amounts (≈) assume the structure as drawn. Like-named read-outs stand apart in the source and are kept apart here.

Tests used:
Format in all cases: cell-based
Bacillus subtilis (Bs) = assay: Minimum inhibitory concentration (MIC) in nutrient agar, Bacillus subtilis
Experimental: (§1) The antimicrobial activity of the compounds of the present invention is set forth as the minimum inhibitory concentration (MIC) for the active compounds and is determined for nine (9) bacteria, using nutrient agar, and seven (7) yeast and fungi, using malt yeast agar. This determination is conducted using a one percent solution of the test compound prepared in a mixture of acetone and water.
(§2) Nutrient agar is prepared at pH 6.8, representing a neutral medium, and at pH 8.2, representing an alkaline medium. The nutrient agars are prepared by adding 23 g of nutrient agar to one-liter of deionized water. In addition, the alkaline medium is prepared by adjusting a 0.04M solution of N-[tris-(hydroxymethyl)methyl]glycine buffered deionized water with concentrated sodium hydroxide to a pH of 8.5.
(§3) The test tubes containing the agar are cooled in a water bath until the temperature of the agar is 48° C. Then, an appropriate amount of the one percent solution of the test compound is added (except in the controls where no compound is added) to the respective test tubes so that the final concentrations are 500, […], 100, 50, 25, 10, 5, 2.5, 1.0 and zero parts per million of the test compound in the agar, thus having a known concentration of test compound dispersed therein. The contents of the test tubes are then transferred to respective petri plates. After drying for 24 hours, the petri plates containing nutrient agar are inoculated with bacteria and those containing malt yeast agar are inoculated with yeast and fungi.
(§4) The inoculation with bacteria is accomplished by using the following procedure. Twenty-four hour-cultures of each of the bacteria are prepared by incubating the respective bacteria in tubes containing nutrient broth for 24 hours at 30° C. in a shaker. Dilutions of each of the 24 hour-cultures are made so that nine separate suspensions (one for each of the nine test bacteria) are made, each containing 10^8 colony forming units (CFU) per mL of suspension of a particular bacteria. Aliquots of 0.3 mL of each of the bacterial suspensions are used to fill the individual wells of Steer's Replicator. For each microbial suspension, 0.3 mL was used to fill three wells (i.e., three wells of 0.3 mL each) so that for the nine different bacteria, 27 wells are filled. The Steer's Replicator is then used to inoculate both the neutral and alkaline pH nutrient agar petri plates.
(§5) The inoculated petri plates are incubated at 30° C. for 48 hours and then read to determine if the test compound which is incorporated into the agar prevented growth of the respective bacteria.

[1] = tested on: Salmonella choleraesuis (Se); assay: Minimum inhibitory concentration (MIC) in nutrient agar, Salmonella choleraesuis; conditions: Salmonella enterica, 48 h
Experimental: as §1, §2, §3, §4, §5

Proteus vulgaris (Pv) = assay: Minimum inhibitory concentration (MIC) in nutrient agar, Proteus vulgaris; conditions: 48 h
Experimental: as §1, §2, §3, §4, §5

[2] = tested on: Pseudomonas aeruginosa (PRD-10); assay: Minimum inhibitory concentration (MIC) in nutrient agar, Pseudomonas aeruginosa PRD-10; conditions: 48 h
Experimental: as §1, §2, §3, §4, §5

[3] = tested on: Enterobacter aerogenes (Ea); assay: Minimum inhibitory concentration (MIC) in nutrient agar, Enterobacter aerogenes; conditions: Klebsiella aerogenes, 48 h
Experimental: as §1, §2, §3, §4, §5

[4] = tested on: Klebsiella pneumoniae (Kp); assay: Minimum inhibitory concentration (MIC) in nutrient agar, Klebsiella pneumoniae
Experimental: as §1, §2, §3, §4, §5

Candida albicans (Ca) = assay: Minimum inhibitory concentration (MIC) in malt yeast agar, Candida albicans
Experimental: as §1
(§6) Malt yeast agar is prepared at pH 5.5 by adding 3 g yeast extract and 45 g malt agar per liter of deionized water. The specific agar is dispensed in 30 mL aliquots into 25×200 mm test tubes, capped and autoclaved for 15 minutes at 115° C.
as §3
(§7) The inoculation with the yeast and fungi is accomplished as follows. Cultures of yeast and fungi are incubated for seven days on malt yeast agar at 30° C. These cultures are used to prepare suspensions by the following procedure. A suspension of each organism is prepared by adding 10 mL of sterile saline and 10 microliters of octylphenoxy polyethoxy ethanol to the agar slant of yeast or fungi. The sterile saline/octylphenoxy potyethoxy ethanol solution is then agitated with a sterile swab to suspend the microorganism grown on the slant. Each resulting suspension is diluted into sterile saline (1 part suspension: 9 parts sterile saline). Aliquots of these dilutions are placed in individual wells of Steer's Replicator and petri plates inoculated as previously described. The petri plates are incubated at 30° C. and read after 48 hours for yeast and 72 hours for fungi.

Trichoderma viride (Tv) = assay: Minimum inhibitory concentration (MIC) in malt yeast agar, Trichoderma viride
Experimental: as §1, §6, §3, §7

[5] = tested on: Aureobasidium pullulan (Ap); assay: Minimum inhibitory concentration (MIC) in malt yeast agar, Aureobasidium pullulan
Experimental: as §1, §6, §3, §7

[6] = tested on: Penicillium chrysogenum (Pc); assay: Minimum inhibitory concentration (MIC) in malt yeast agar, Penicillium chrysogenum
Experimental: as §1, §6, §3, §7

Fusarium oxysporum (Fo) = assay: Minimum inhibitory concentration (MIC) in malt yeast agar, Fusarium oxysporum
Experimental: as §1, §6, §3, §7

[7] = tested on: Saccharomyces cerevisiae (Sc); assay: Minimum inhibitory concentration (MIC) in malt yeast agar, Saccharomyces cerevisiae
Experimental: as §1, §6, §3, §7

Escherichia coli (Ec) = assay: Minimum inhibitory concentration (MIC) in nutrient agar, Escherichia coli; conditions: 48 h
Experimental: as §1, §2, §3, §4, §5

[8] = tested on: Pseudomonas aeruginosa (Pa); assay: Minimum inhibitory concentration (MIC) in nutrient agar, Pseudomonas aeruginosa
Experimental: as §1, §2, §3, §4, §5

[9] = tested on: Staphylococcus aureus (Sa); assay: Minimum inhibitory concentration (MIC) in nutrient agar, Staphylococcus aureus
Experimental: as §1, §2, §3, §4, §5

Aspergillus niger (An) = assay: Minimum inhibitory concentration (MIC) in malt yeast agar, Aspergillus niger
Experimental: as §1, §6, §3, §7

[10] = 48 h, pH 8.2, read-out: Minimum Inhibitory Concentration, Bs
[11] = pH 6.8, nutrient agar, 30° C., 48 hours, read-out: Minimum Inhibitory Concentration, Bs
[12] = pH 6.8, read-out: Minimum Inhibitory Concentration, SC
[13] = pH 8.2, read-out: Minimum Inhibitory Concentration, SC
[14] = pH 6.8, read-out: Minimum Inhibitory Concentration, Pv
[15] = pH 8.2, read-out: Minimum Inhibitory Concentration, Pv
[16] = pH 6.8, read-out: Minimum Inhibitory Concentration, PRD
[17] = pH 8.2, read-out: Minimum Inhibitory Concentration, PRD
[18] = pH 6.8, read-out: Minimum Inhibitory Concentration, Ea
[19] = pH 8.2, read-out: Minimum Inhibitory Concentration, Ea
[20] = 48 h, pH 8.2, read-out: Minimum Inhibitory Concentration, Kp
[21] = pH 6.8, nutrient agar, 30° C., 48 hours, read-out: Minimum Inhibitory Concentration, Kp
[22] = 48 h, pH 5.5, read-out: Minimum Inhibitory Concentration, Ca
[23] = pH 5.5, malt yeast agar, 30° C., read-out: Minimum Inhibitory Concentration, Ap
[24] = pH 5.5, malt yeast agar, 30° C., 72 hours for fungi, read-out: Minimum Inhibitory Concentration, PC
[25] = pH 5.5, malt yeast agar, 30° C., 48 hours for yeast, read-out: Minimum Inhibitory Concentration, SC
[26] = pH 6.8, read-out: Minimum Inhibitory Concentration, Ec
[27] = pH 8.2, read-out: Minimum Inhibitory Concentration, Ec
[28] = pH 6.8, nutrient agar, 30° C., 48 hours, read-out: Minimum Inhibitory Concentration, Pa
[29] = pH 8.2, nutrient agar, 30° C., 48 hours, read-out: Minimum Inhibitory Concentration, Pa
[30] = 48 h, pH 8.2, read-out: Minimum Inhibitory Concentration, Sa
[31] = pH 6.8, nutrient agar, 30° C., 48 hours, read-out: Minimum Inhibitory Concentration, Sa
[32] = 72 h, pH 5.5, read-out: Minimum Inhibitory Concentration, An
[33] = pH 5.5, malt yeast agar, 30° C., 72 hours for fungi, read-out: Minimum Inhibitory Concentration, Tv
[34] = pH 5.5, read-out: Minimum Inhibitory Concentration, Ap
[35] = pH 5.5, malt yeast agar, 30° C., 72 hours for fungi, read-out: Minimum Inhibitory Concentration, An
[36] = pH 5.5, malt yeast agar, 30° C., 48 hours for yeast, read-out: Minimum Inhibitory Concentration, Ca

| SMILES | MIC (Bacillus subtilis (Bs); [10]) [µg/mL] | MIC (Bacillus subtilis (Bs); [11]) [µg/mL] | MIC [1, 12] [µg/mL] | MIC [1, 13] [µg/mL] | MIC (Proteus vulgaris (Pv); [14]) [µg/mL] | MIC (Proteus vulgaris (Pv); [15]) [µg/mL] | MIC [2, 16] [µg/mL] | MIC [2, 17] [µg/mL] | MIC [3, 18] [µg/mL] | MIC [3, 19] [µg/mL] | MIC [4, 20] [µg/mL] | MIC [4, 21] [µg/mL] | MIC [6, 24] [µg/mL] | MIC [7, 25] [µg/mL] | MIC (Escherichia coli (Ec); [26]) [µg/mL] | MIC (Escherichia coli (Ec); [27]) [µg/mL] | MIC [8, 28] [µg/mL] | MIC [8, 29] [µg/mL] | MIC [9, 30] [µg/mL] | MIC [9, 31] [µg/mL] | further results |
| --- | --- | --- | --- | --- | --- | --- | --- | --- | --- | --- | --- | --- | --- | --- | --- | --- | --- | --- | --- | --- | --- |
| COc1cccc(-c2nsnc2SCSC#N)c1 [Example XXII, 4-(3-Methoxyphenyl)-3-thiocyanatomethylthio-1,2,5-thiadiazole] | 25 (≈ 84.6 µM) | 9 (≈ 30.5 µM) | 500 (≈ 1690 µM) | > 500 | 500 (≈ 1690 µM) | > 500 | 500 (≈ 1690 µM) | > 500 | 500 (≈ 1690 µM) | > 500 | > 500 | 500 (≈ 1690 µM) | 25 (≈ 84.6 µM) | 9 (≈ 30.5 µM) | 500 (≈ 1690 µM) | 500 (≈ 1690 µM) | 500 (≈ 1690 µM) | > 500 | 500 (≈ 1690 µM) | 500 (≈ 1690 µM) | MIC (Candida albicans (Ca); [22]): 250 µg/mL (≈ 846 µM); MIC (Trichoderma viride (Tv); 72 h, pH 5.5, read-out: Minimum Inhibitory Concentration, Tv): 250 µg/mL (≈ 846 µM); MIC [5, 23]: 9 µg/mL (≈ 30.5 µM); MIC (Fusarium oxysporum (Fo); 72 h, pH 5.5, read-out: Minimum Inhibitory Concentration, Fo): 50 µg/mL (≈ 169 µM); MIC (Aspergillus niger (An); [32]): 50 µg/mL (≈ 169 µM) |
| COc1cccc(-c2nsnc2SC#N)c1 [Example VII, a-(3-Methoxyphenyl)-3-thiocyanato-1,2,5-thiadiazole] | 250 (≈ 1000 µM) | 25 (≈ 100 µM) | > 500 | 500 (≈ 2010 µM) | > 500 | 500 (≈ 2010 µM) | > 500 | 500 (≈ 2010 µM) | > 500 | 500 (≈ 2010 µM) | 500 (≈ 2010 µM) | > 500 | 25 (≈ 100 µM) | 5 (≈ 20.1 µM) | > 500 | 500 (≈ 2010 µM) | > 500 | 500 (≈ 2010 µM) | 500 (≈ 2010 µM) | 250 (≈ 1000 µM) | MIC (Candida albicans (Ca); [22]): 50 µg/mL (≈ 201 µM); MIC (Trichoderma viride (Tv); [33]): 5 µg/mL (≈ 20.1 µM); MIC [5, 34]: 5 µg/mL (≈ 20.1 µM); MIC (Aspergillus niger (An); [35]): 10 µg/mL (≈ 40.1 µM) |
| COC(=O)c1ccc(-c2nsnc2SC#N)cc1 [Example XII] | 500 (≈ 1800 µM) | 25 (≈ 90.1 µM) | 500 (≈ 1800 µM) | 500 (≈ 1800 µM) | 500 (≈ 1800 µM) | 500 (≈ 1800 µM) | 500 (≈ 1800 µM) | 500 (≈ 1800 µM) | 500 (≈ 1800 µM) | 500 (≈ 1800 µM) | 500 (≈ 1800 µM) | 500 (≈ 1800 µM) | – | 10 (≈ 36.1 µM) | 500 (≈ 1800 µM) | 500 (≈ 1800 µM) | 500 (≈ 1800 µM) | 500 (≈ 1800 µM) | 500 (≈ 1800 µM) | 500 (≈ 1800 µM) | MIC (Candida albicans (Ca); [36]): 10 µg/mL (≈ 36.1 µM); MIC [5, 23]: 10 µg/mL (≈ 36.1 µM); MIC ([6]; 72 h, pH 5.5, read-out: Minimum Inhibitory Concentration, PC): 100 µg/mL (≈ 361 µM); MIC (Fusarium oxysporum (Fo); pH 5.5, malt yeast agar, 30° C., 72 hours for fungi, read-out: Minimum Inhibitory Concentration, Fo): 10 µg/mL (≈ 36.1 µM); MIC (Aspergillus niger (An); [32]): 25 µg/mL (≈ 90.1 µM) |
| N#CSc1nsnc1-c1ccc(C(F)(F)F)cc1 [Example X, 4-(4-Trifluoromethylphenyl)-3-thiocyanato-1,2,5-thiadiazole] | 500 (≈ 1740 µM) | 25 (≈ 87 µM) | > 500 | 500 (≈ 1740 µM) | > 500 | 500 (≈ 1740 µM) | > 500 | 500 (≈ 1740 µM) | > 500 | 500 (≈ 1740 µM) | 500 (≈ 1740 µM) | > 500 | 5 (≈ 17.4 µM) | – | > 500 | 500 (≈ 1740 µM) | – | 500 (≈ 1740 µM) | 500 (≈ 1740 µM) | > 500 | MIC (Candida albicans (Ca); [36]): 5 µg/mL (≈ 17.4 µM); MIC (Trichoderma viride (Tv); [33]): 2.5 µg/mL (≈ 8.7 µM); MIC [5, 34]: 2.5 µg/mL (≈ 8.7 µM); MIC ([7]; 48 h, pH 5.5, read-out: Minimum Inhibitory Concentration, SC): 2.5 µg/mL (≈ 8.7 µM); MIC ([8]; 48 h, pH 6.8, read-out: Minimum Inhibitory Concentration, Pa): > 50 µg/mL; MIC (Aspergillus niger (An); [35]): 5 µg/mL (≈ 17.4 µM) |
